Test results as given in patent US20140088314A1, “BIFUNCTIONAL CHELATING AGENTS” (GENERAL ELECTRIC COMPANY, priority 2012, published 2014).

What was measured:
[1] = Hydrodynamic size assay (dynamic light scattering); format: physicochemical; conditions: size printed beside agent name in Table 8
Method: The dilution was carried out to yield approximately 20,000 counts per second during the DLS measurement and the sample was allowed to equilibrate for 10 minutes in the instrument prior to data collection.

mammary MATBIII tumor = assay: Dynamic contrast enhanced (DCE) MR tumor imaging; format: in vivo, SCID mice; conditions: dose 0.2 mmol/kg Gd, Fe, mammary MBIII rodent tumor model
Method: Cell Preparation: MATBIII breast cells (available from ATCC®) were trypsinized using 1×trypsin-EDTA. The cells were washed using 1× phosphate buffered saline (PBS) and aliquots of 2×10^6 cells were made in 1×PBS (100 uL). Prior to injection into the subject, 50 μL of basement membrane matrix (Matrigel®, BD Biosciences) was added to each aliquot.
Tumor Induction: All procedures involving animals were completed under protocols approved by the GE Global Research Institutional Animal Care and Use Committee. Female, 5-7 weeks old, SCID mice (Charles River Laboratories) were briefly anesthetized with 2% isoflurane and injected with 1×10^6 MATBIII breast cancer cells in 1×PBS (100 μL) and Matrigel SC to their left flank. The animals were monitored for 7 days post tumor cell injections at which point, precontrast agent MR images of the resulting lesions, typically 1 cm in diameter, were collected using the sequences described below.

Agent size [1]: Magnevist - Gd (1 nm)
Compound: CNC[C@H](O)[C@@H](O)[C@H](O)[C@H](O)CO.CNC[C@H](O)[C@@H](O)[C@H](O)[C@H](O)CO.O=C([O-])CN(CCN(CC(=O)[O-])CC(=O)O)CCN(CC(=O)[O-])CC(=O)O.[Gd+3] [Magnevist - Gd]
Tumor-to-muscle signal enhancement ratio, Tumor: Muscle, Average (mammary MATBIII tumor): 3.6
